Source: PMC9913351, “Computational Approach to Drug Penetration across the Blood-Brain and Blood-Milk Barrier Using Chromatographic Descriptors” (Cells, 2023)

How the values were obtained:
bovine serum albumin BSA [1] = target: T1, bovine serum albumin BSA (Bos taurus, UniProt P02769); assay: RP TLC on silanized RP-2 plates impregnated with bovine serum albumin; type: in vitro ADME; conditions: for RP: Rf value from RP plate impregnated with 2 mg/mL BSA solution, mobile phase pH 7.4; for RP/C: Rf from BSA-modified RP-2 plate / Rf from clear one (control)
T1 construct: purchased Sigma Aldrich
T1 sequence (P02769 25-607): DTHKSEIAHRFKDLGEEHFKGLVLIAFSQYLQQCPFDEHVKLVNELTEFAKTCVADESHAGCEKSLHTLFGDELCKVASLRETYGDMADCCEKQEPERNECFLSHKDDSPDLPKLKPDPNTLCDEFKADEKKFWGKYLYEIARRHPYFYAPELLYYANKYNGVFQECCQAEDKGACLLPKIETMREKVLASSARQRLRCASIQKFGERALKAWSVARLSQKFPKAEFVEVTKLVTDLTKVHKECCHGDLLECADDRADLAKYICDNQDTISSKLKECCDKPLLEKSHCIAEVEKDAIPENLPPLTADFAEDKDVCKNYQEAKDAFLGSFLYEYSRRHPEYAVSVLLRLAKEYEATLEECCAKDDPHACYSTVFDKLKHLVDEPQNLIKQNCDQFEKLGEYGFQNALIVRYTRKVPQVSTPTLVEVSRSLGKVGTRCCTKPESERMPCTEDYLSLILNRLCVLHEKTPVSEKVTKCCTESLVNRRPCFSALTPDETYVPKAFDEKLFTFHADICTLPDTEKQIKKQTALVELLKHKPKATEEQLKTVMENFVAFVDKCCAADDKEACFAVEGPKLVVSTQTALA

[2] = RP TLC on unimpregnated RP-2 control plate; type: physicochemical; conditions: Rf value from unimpregnated RP plate (control); mobile phase pH 7.4
human serum albumin HSA = target: T2, human serum albumin HSA (Homo sapiens, UniProt P02768); assay: HPLC on immobilized human serum albumin column (HPLC-HSA); type: in vitro ADME; conditions: for log kHSA: logarithm of retention factor, mobile phase pH 7.4; for kHSA: retention factor, acetate buffer pH 7.4/acetonitrile/methanol 85:10:5
T2 construct: 4 × 10 mm
T2 sequence (P02768 25-609): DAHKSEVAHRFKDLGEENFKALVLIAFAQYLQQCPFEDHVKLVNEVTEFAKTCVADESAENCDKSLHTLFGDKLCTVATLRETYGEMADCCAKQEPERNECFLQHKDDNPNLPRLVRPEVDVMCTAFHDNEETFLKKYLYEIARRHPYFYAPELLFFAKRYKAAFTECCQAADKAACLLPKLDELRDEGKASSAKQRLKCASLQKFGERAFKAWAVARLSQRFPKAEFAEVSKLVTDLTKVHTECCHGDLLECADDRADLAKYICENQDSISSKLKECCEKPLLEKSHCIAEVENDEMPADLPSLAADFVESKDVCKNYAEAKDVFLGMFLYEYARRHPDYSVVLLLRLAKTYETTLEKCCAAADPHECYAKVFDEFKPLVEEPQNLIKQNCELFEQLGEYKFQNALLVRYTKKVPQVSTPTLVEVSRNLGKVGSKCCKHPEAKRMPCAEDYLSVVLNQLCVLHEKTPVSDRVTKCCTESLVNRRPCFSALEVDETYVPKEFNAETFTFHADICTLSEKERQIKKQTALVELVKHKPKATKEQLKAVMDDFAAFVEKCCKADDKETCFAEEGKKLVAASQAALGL

bovine serum albumin BSA [3] = target: T1, bovine serum albumin BSA; assay: NP TLC on silica gel plates impregnated with bovine serum albumin; type: in vitro ADME; conditions: for NP/C: Rf from BSA-modified NP plate / Rf from clear one (control)
[4] = NP TLC on unimpregnated control plate; type: physicochemical; conditions: Rf value from unimpregnated NP plate (control); mobile phase pH 7.4
[5] = set-up: method as in earlier work; conditions: code describing the acid-base properties; source Chembl; cited from earlier work
[6] = HPLC on immobilized artificial membrane column (HPLC-IAM); type: physicochemical; conditions: for log kIAM: logarithm of retention factor, mobile phase pH 7.4; for kIAM: retention factor, phosphate buffer pH 7.4/acetonitrile 80:20
[7] = ratio of drug concentration in milk and plasma; cited from earlier work
[8] = Rf value from NP plate impregnated with 2 mg/mL BSA solution, mobile phase pH 7.4
Wherever a/b/n code is given: key: (-1) - acids; (0) - neutrals; (1) - bases.

Molecule | RP (bovine serum albumin BSA [1]) | CRP [2] | log kHSA (human serum albumin HSA) | kHSA (human serum albumin HSA) | NP/C (bovine serum albumin BSA [3]) | NP (bovine serum albumin BSA [3]; [8]) | RP/C (bovine serum albumin BSA [1]) | CNP [4] | a/b/n code [5] | log kIAM [6] | kIAM [6] | NP (bovine serum albumin BSA [3]; pH 7.4) | M/P ratio [7]
CC(=O)Nc1nnc(S(N)(=O)=O)s1 [acetazolamid] | 0.96 | 0.97 | -0.13 | 0.74 | – | – | – | – | – | – | – | – | –
CN(C)CCC=C1c2ccccc2CCc2ccccc21 [amitriptyline] | 0.63 | 0.67 | 0.77 | 5.87 | 0.97 | 0.31 | 0.94 | 0.32 | 1 | – | – | – | –
CCCCN1CCCCC1C(=O)Nc1c(C)cccc1C (stereo not shown) [bupivacaine] | 0.75 | 0.74 | 0.07 | 1.18 | 1.00 | 0.67 | 1.01 | 0.67 | 0 | – | – | – | –
CCN(CC)CCCC(C)Nc1ccnc2cc(Cl)ccc12 (stereo not shown) [chloroquine] | – | – | – | – | – | – | – | – | – | 0.49 | – | – | –
CN(C)CCCC1(c2ccc(F)cc2)OCc2cc(C#N)ccc21 (stereo not shown) [citalopram] | – | – | – | – | – | – | – | – | – | 0.50 | 3.14 | – | –
CN(C)CCCN1c2ccccc2CCc2ccc(Cl)cc21 [clomipramine] | – | – | – | – | – | – | – | – | – | – | 3.05 | – | –
CN(C)CCC=C1c2ccccc2COc2ccccc21 [doxepin] | 0.54 | – | 0.63 | 4.25 | 1.03 | 0.31 | 0.93 | 0.30 | 1 | 0.45 | 2.81 | – | –
CNCC[C@H](Oc1cccc2ccccc12)c1cccs1 [duloxetine] | – | – | 0.91 | 8.16 | – | – | – | – | – | 0.45 | 2.84 | – | –
CN1CCC[C@@H]1Cc1c[nH]c2ccc(CCS(=O)(=O)c3ccccc3)cc12 [eletriptan] | – | – | 0.58 | 3.78 | – | – | – | – | 1 | 0.55 | 3.57 | – | –
CC[C@@H](CO)NCCN[C@@H](CC)CO [ethambutol] | 0.95 | 0.97 | 0.24 | 1.73 | 1.11 | 0.21 | 0.98 | 0.19 | 1 | 0.34 | 2.18 | – | –
COCCCC/C(=N\OCCN)c1ccc(C(F)(F)F)cc1 [fluvoxamine] | – | – | – | – | – | – | – | 0.34 | – | – | – | – | –
NCC1(CC(=O)O)CCCCC1 [gabapentin] | – | – | -0.84 | 0.15 | – | – | – | – | – | 0.23 | 1.70 | – | –
NS(=O)(=O)c1cc2c(cc1Cl)NCNS2(=O)=O [hydrochlorotiazide] | – | – | – | – | – | – | – | – | – | 0.30 | 2.01 | – | –
CCC(C)n1ncn(-c2ccc(N3CCN(c4ccc(OCC5COC(Cn6cncn6)(c6ccc(Cl)cc6Cl)O5)cc4)CC3)cc2)c1=O (stereo not shown) [itraconazole] | 0.84 | 0.86 | 0.98 | 9.65 | 1.01 | 0.97 | 0.98 | 0.96 | 0 | 0.79 | 6.15 | – | –
O=C(c1ccccc1)c1ccc2n1CCC2C(=O)O (stereo not shown) [ketorolac] | 0.96 | 0.96 | 0.98 | 9.65 | 0.99 | 0.91 | 1.00 | 0.92 | -1 | 0.38 | 2.39 | – | –
CC[C@@H](C(N)=O)N1CCCC1=O [levetiracetam] | 0.92 | 0.92 | -1.16 | 0.07 | 1.00 | 0.92 | 1.00 | 0.92 | 0 | 0.21 | 1.62 | – | –
CCC[C@@H]1C[C@@H](C(=O)N[C@@H]([C@H]2O[C@H](SC)[C@H](O)[C@@H](O)[C@H]2O)[C@@H](C)O)N(C)C1 [lincomycin] | – | – | -0.08 | 0.82 | 1.00 | 0.91 | – | 0.91 | 1 | 0.59 | 3.89 | – | –

Molecule | RP (bovine serum albumin BSA [1]) | CRP [2] | log kHSA (human serum albumin HSA) | kHSA (human serum albumin HSA) | NP/C (bovine serum albumin BSA [3]) | NP (bovine serum albumin BSA [3]; [8]) | RP/C (bovine serum albumin BSA [1]) | CNP [4] | a/b/n code [5] | log kIAM [6] | kIAM [6] | NP (bovine serum albumin BSA [3]; pH 7.4) | M/P ratio [7]
Nc1ccc(O)c(C(=O)O)c1 [mesalazine] | 0.97 | 0.99 | -0.73 | 0.18 | – | – | 0.98 | – | -1 | 0.11 | 1.28 | – | –
Nc1cc(N2CCCCC2)nc(N)[n+]1[O-] [minoxidil] | – | – | – | – | – | – | – | – | – | 0.29 | 1.96 | – | –
CCOC(=O)C1=C(C)NC(C)=C(C(=O)OC)C1c1cccc([N+](=O)[O-])c1 (stereo not shown) [nitrendipine] | 0.86 | 0.86 | 0.55 | 3.55 | 1.00 | 0.97 | 1.00 | 0.97 | 0 | 0.47 | 2.98 | – | –
CC1COc2c(N3CCN(C)CC3)c(F)cc3c(=O)c(C(=O)O)cn1c23 (stereo not shown) [ofloxacin] | – | – | – | – | – | – | – | 0.24 | – | 0.49 | 3.07 | 0.23 | –
NC(=O)N1c2ccccc2CC(=O)c2ccccc21 [oxcarbamazepine] | 0.91 | 0.91 | -0.40 | 0.40 | – | 0.90 | – | 0.91 | – | 0.35 | 2.26 | – | –
CC(C)C[C@H](CN)CC(=O)O [pregabalin] | – | – | -0.87 | 0.14 | – | – | – | – | – | 0.22 | 1.65 | – | –
CCC1(c2ccccc2)C(=O)NCNC1=O [primidone] | 0.97 | 0.93 | -0.66 | 0.22 | 1.03 | 0.93 | 1.04 | 0.90 | 0 | 0.31 | 2.02 | – | –
CCCc1cc(=O)[nH]c(=S)[nH]1 [propylthiouracil] | – | – | – | – | – | – | – | – | – | 0.18 | 1.51 | – | –
C=C[C@H]1C[N@@]2CC[C@H]1C[C@H]2[C@H](O)c1ccnc2ccc(OC)cc12 [quinine] | – | – | – | – | – | – | – | – | – | 0.49 | 3.06 | – | –
CO[C@H]1/C=C/O[C@@]2(C)Oc3c(C)c(O)c4c(O)c(c(/C=N/N5CCN(C)CC5)c(O)c4c3C2=O)NC(=O)/C(C)=C\C=C\[C@H](C)[C@H](O)[C@@H](C)[C@@H](O)[C@@H](C)[C@H](OC(C)=O)[C@@H]1C [rifampicin] | 0.94 | 0.95 | -1.53 | 0.03 | – | 0.77 | – | 0.73 | – | 0.92 | 8.37 | – | –
CC(N)C12CC3CC(CC(C3)C1)C2 (stereo not shown) [rimantadine] | 0.95 | 0.95 | -0.80 | 0.16 | 1.00 | 0.92 | 1.00 | 0.92 | 1 | 0.28 | 1.91 | – | –
CN[C@H]1CC[C@@H](c2ccc(Cl)c(Cl)c2)c2ccccc21 [sertraline] | – | – | – | – | – | – | – | – | – | – | – | – | above 1
CC(C)(C)NC[C@H](O)COc1nsnc1N1CCOCC1 [timolol] | 0.97 | 0.97 | – | 0.13 | – | 0.32 | – | 0.34 | – | – | 2.88 | – | –
CCS(=O)(=O)CCn1c([N+](=O)[O-])cnc1C [tinidazole] | – | – | -0.92 | 0.12 | – | 0.88 | – | 0.89 | – | 0.30 | 2.00 | – | –
COc1cc(Cc2cnc(N)nc2N)cc(OC)c1OC [trimethoprim] | – | – | – | – | – | 0.59 | – | 0.57 | – | – | – | – | –
CC(=O)CC(c1ccccc1)c1c(O)c2ccccc2oc1=O (stereo not shown) [warfarin] | – | – | – | – | – | – | – | – | – | 0.44 | 2.76 | – | –
gentamycin | – | – | – | – | – | – | – | 0.96 | 1 | 0.63 | 4.25 | – | –
